According to US20030161893A1, “PTPase inhibitors and methods of using the same” (priority 2001, published 2003):

Experiments:
Flag-PRL-1 = target: T1, Flag-PRL-1 (Homo sapiens, UniProt Q93096); assay: Immunocomplex PTPase assay, Flag-PRL-1 NIH3T3 transfectants; format: cell-based; settings: cells treated 5 min
T1 construct: expressed in transfected cells
Protocol: Immunocomplex PTPase assays were performed to assess the effects of sodium stibogluconate on intracellular PTPases. Cells were untreated or treated with sodium stibogluconate for 5 minutes, washed with fresh medium and then lysed in cold lysis buffer (50 mM Tris, pH 7.4; 150 mM NaCl; 1% NP40; 2 mM PMSF; 20 ,g/ml of Aprotinin). The lysates were incubated with an anti-Flag antibody in immunoprecipitation assays. The immunocomplexes were collected with protein G sepharose beads (Pharmacia) and washed in cold lysis buffer for 4 times. […] 100 μL of malachite green solution (UBI) was added to each reaction prior to measurement of OD660 to quantify the amounts of free phosphate cleaved by the PTPases from the peptide substrate (Pathak et al., J. Imumol. 167, 3391 (2001)). The remaining 10% contents of individual samples were analyzed by SDS-PAGE/Western blotting to quantify the relative amounts of the phosphatase proteins. […]
The effects of sodium stibogluconate on intracellular PTPases were assessed using NIH3T3 or WM9 transfectants. […]

[1] = Tolerability in nude mice (viability, body weight, organs); format: in vivo
Protocol: Nude mice bearing WM9 or DU145 xenografts were treated with IFN-alpha (500,000 U, s.c., daily), sodium stibogluconate (12 mg Sb, s.c., daily) or both. […] The dosage of sodium stibogluconate corresponds to approximately 440 mg Sb/kg body weight (average mouse body weight 27 g), substantially higher than the standard therapeutic dose of 20 mg Sb/kg and the high dose (143 mg Sb/kg) that was clinically used by accident without serious toxicity. This dose of sodium stibogluconate was based on a previous observation in a pilot study that mice could tolerate daily dose of 20 mg Sb (approximately 700-800 mg Sb/kg). An observation that the effect of sodium stibogluconate in inhibiting the growth of the cancer cell lines in vitro was dose-dependent with complete or near complete killing of the cancer cells at […] (or 100 ug Sb/kg) was also considered. In light of the relatively rapid rate of clearance of the drug in vivo, 440 mg Sb/kg dosage was used to ensure the detection of the effectiveness of the drug for this initial study.
As discussed above, the dosage of sodium stibogluconate used for the treatment of nude mice was 12 mg Sb/mouse, s.c., daily (or approximately 440 mg/kg body weight). This dosage is much higher than the standard dose for leishmaniasis (20 mg Sb/kg, daily). As an initial step to assess the toxicity of such a high dosage of sodium stibogluconate in nude mice, the effect of sodium stibogluconate on the viability and body weights of WM9 xenografts nude mice during the 25 day period of the study was determined.
Athymic nude mice (nu/nu, NCR), 4 weeks old (Taconic), were inoculated (s.c.) in the flanks with DU145 cells (3×10^6 cells/site) on day 0. Starting on day 2, the mice were subjected to no treatment (Control) or treatment with sodium stibogluconate (12 mg, s.c., daily, […], at the hip area). The dosage of sodium stibogluconate used in the study was similar to the effective daily dose of sodium stibogluconate for the treatment of murine leishmaniasis (Murray, et al. 1988). Tumor volume was measured and calculated using the formula for a prolate spheroid (V=4/3 7 a^2b) (Lindner, et al. 1997). Hematoxylin+Eosin (H.E.) stained tissue sections of internal organs and tumor inoculation sites tissues of the mice were prepared and subjected microscopic evaluation.

T1 sequence (Q93096 whole entry): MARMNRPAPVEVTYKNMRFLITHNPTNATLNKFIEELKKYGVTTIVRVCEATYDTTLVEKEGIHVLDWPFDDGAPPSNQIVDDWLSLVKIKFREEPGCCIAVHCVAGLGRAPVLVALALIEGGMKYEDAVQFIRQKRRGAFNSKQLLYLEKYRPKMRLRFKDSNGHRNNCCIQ

In the case of `O.O.O.O.O.O.O.O.O.O=C([O-])[C@@H]1[O][Sb]2([O-])([O][Sb]34([OH])[O][C@H]([C@H](O)CO)[C@H]([O]3)[C@H](C(=O)[O-])[O]4)[O][C@H]([C@H](O)CO)[C@@H]1[O]2.[Na+].[Na+].[Na+]` [sodium stibogluconate], the “PTPase activity of anti-Flag immunocomplexes, Flag-PRL-1” value (Flag-PRL-1) is reported as “little PTPase activities”, the “tolerability at the dosage used” value ([1]; 12 mg Sb daily (440 mg Sb/kg daily)) is reported as “well tolerated with no serious side effects” and the “survival of DU145 tumor mice” value ([1]; 440 mg/kg daily) is reported as “survived until the end of the study”. The “histology of major organs” value ([1]; 440 mg/kg daily, DU145 tumor mice) was “unremarkable”, the “tolerated daily dose in mice (pilot study)” value ([1]; approximately 700-800 mg Sb/kg) was 20 mg Sb and the “survival of WM9 xenograft nude mice” value ([1]; day 25, 4 mice/group) was “survived until the end of the study”.
